Tests used:
[1] = In vivo pharmacokinetic evaluation in rat; set-up: species or system Sprague Dawley male rats
Protocol: In order to study the pharmacokinetic (PK) profile of test compounds in vivo, Sprague Dawley male rats or C57BL/6 female mice were dosed intravenously or after oral gavage. For both species, test compounds were dosed in solution at 1 mg/kg for i.v. route (10% ethanol, 10% N,N-dimethylacetamide, 30% propylene glycol, 50% water, v/v) and in suspension at 5 mg/kg (0.5% carboxymethylcellulose suspension, containing 0.25% Tween 20 in water) for oral gavage. PK profile in rat was obtained from 3 animals per dosing route and mouse PK profile was determined from 3 animals for each time points. The volume of administration was 2 mL/kg for i.v. dosing in both species and either 5 mL/kg (rat) or 10 mL/kg (mouse) for oral gavage. Blood samples (100 μL/time point) were collected at 0.083 (5 min), 0.25, 0.5, 1, 4, 7 and 24 hours post-dose for i.v. dosing, and at 0.5, 1, 4, 7 and 24 h for oral dosing, into heparin-Li+ containing tubes. For rats, all blood samples were collected trough a catheter in the carotid artery (placed in the artery the day before the experiment), under light isoflurane anesthesia, and stored on ice until centrifugation and plasma isolation. […] For bioanalysis, samples were processed by protein precipitation (acetonitrile, formic acid 0.1%, addition of 3 volumes) after addition of one internal standard and analysed using a sensitive and selective LC/MS/MS method. An aliquot of the resulting supernatant was subject to LC/MS/MS analysis using a reverse phase column (Waters Xterra, C8, (3.5 μm particle size, 2.1×50 mm) and a short gradient (1 min) from (Solvent A) 85% water, 15% acetonitrile and 0.1% formic acid to (Solvent B) 90% acetonitrile, 10% water and 0.1% formic acid followed by isocratic conditions of Solvent B for 3.5 min at 0.4 mL/min. Column effluent was monitored using a Sciex API 4000 triple quadrupole mass spectrometer with a Turbo V electrospray ion source. Unknown concentrations of test compounds were determined using a calibration curve ranging from 1 to 3000 ng/mL.

[2] = tested on: OVA-induced lung eosinophilia in mice; test: OVA-induced lung eosinophilia in mice; assay type: in vivo, BALB/c mice; conditions: BAL fluid, oral gavage
Protocol: BALB/c mice (6-8 weeks old) were immunized with ovalbumin (10 μg i.p) on day 0 and 7. In order to elicit a local inflammatory response in the lung, mice were challenged between day's 15-17 with a nebulised solution of ovalbumin (10 μg/ml; De Vilibiss Ultraneb 2000, once daily for 30 min during the 3 days). On each separate day between 15 and 17 each animal received via oral gavage the test compound, at t−1 h and t+7 h with respect to OVA exposure at t=0 h. Eight hours after the final OVA challenge, bronchoalveolar lavage (BAL) was then carried out. Total cell numbers in the BAL fluid samples were measured using a haemocytometer. Cytospin smears of the BAL fluid samples were prepared by centrifugation at 1200 rpm for 2 min at room temperature and stained using a DiffQuik stain system (Dade Behring) for differential cell counts. […]

[3] = tested on: FITC induced contact hypersensitivity in mice; test: FITC 1 week model (FITC induced contact hypersensitivity, ear swelling); assay type: in vivo, Balb/C mice; conditions: oral gavage, 24 h after challenge
Source text: Fluorescein isothiocyanate (FITC) induced contact hypersensitivity (CHS) is a commonly used model for atopic dermatitis (AD). The hapten FITC is a small molecule that is able to elicit an immune response only when attached to a larger carrier such as a protein. It is reactive towards e-amino groups (lysine). The immune response to FITC sensitization and challenge is Th2 cytokine driven (IL-4, IL-5, IL-6, IL-10 and IL-13) and associated with elevated serum IgE levels. The skin inflammation at the site of the challenge is characterized by edema and eosinophil infiltrations.
Female 9 week old Balb/C mice were sensitized on days 0 and 1 with 0.5% FITC in acetone/dibuthylphtalate (A/DBP). One group (sham) was sensitized with A/DBP alone. On day 6 all the mice including the sham group were challenged on the right ear (inner and outer surface) with 0.5% FITC in A/DBP. The mice were treated with the compounds via oral gavage 1 h before and 7 h after the challenge. The baseline ear thickness was measured before the challenge and 24 h after the challenge. At the end of the experiment (24 h after the challenge) the mice were sacrificed. Serum and plasma samples were taken. The challenged ear was excised and stored at −80° C. Compounds of Formula (I) of the present invention were tested at 3, 10 and 30 mg/Kg.

SMILES: CCCS(=O)(=O)c1cccc(C#Cc2cc(Cl)ccc2OCC(=O)O)c1 [Example 17, (4-chloro-2-{[3-(propylsulfonyl)phenyl]ethynyl}phenoxy)acetic acid]
- Oral bioavailability [1]: 28%
- Clearance iv (1 mg/Kg) ([1]; i.v. 1 mg/Kg): 6.7 mL/min/kg
- AUC ([1]; male, Sprague Dawley, plasma, oral gavage 5 mg/Kg): 3700 ng·h/mL

SMILES: CCCS(=O)(=O)c1ccc(C)c(C#Cc2cc(Cl)ccc2OCC(=O)O)c1 [Example 38, (4-chloro-2-{[2-methyl-5-(propylsulfonyl)phenyl]ethynyl}phenoxy)acetic acid]
- % inhibition eosinophils (mean ± s.e.m.) ([2]; dose 3 mg/kg): 29 ± 14%
- % inhibition total cells (mean ± s.e.m.) ([2]; dose 3 mg/kg): 21 ± 13%
- % inhibition eosinophils (mean ± s.e.m.) ([2]; dose 10 mg/kg): 54 ± 16%
- % inhibition total cells (mean ± s.e.m.) ([2]; dose 10 mg/kg): 42 ± 14%
- % inhibition eosinophils (mean ± s.e.m.) ([2]; dose 30 mg/kg): 81 ± 7%
- % inhibition total cells (mean ± s.e.m.) ([2]; dose 30 mg/kg): 67 ± 8%
- % inhibition of ear swelling (mean ± s.e.m.) ([3]; dose 3 mg/kg): 23 ± 16%
- % inhibition of ear swelling (mean ± s.e.m.) ([3]; dose 10 mg/kg): 56 ± 12%
- % inhibition of ear swelling (mean ± s.e.m.) ([3]; dose 30 mg/kg): 52 ± 12%

SMILES: CCCS(=O)(=O)c1ccc(F)c(C#Cc2cc(Cl)ccc2OCC(=O)O)c1 [Example 89, (4-chloro-2-{[2-fluoro-5-(propylsulfonyl)phenyl]ethynyl}phenoxy)acetic acid]
- % inhibition eosinophils (mean ± s.e.m.) ([2]; dose 3 mg/kg): 19 ± 18%
- % inhibition total cells (mean ± s.e.m.) ([2]; dose 3 mg/kg): 12 ± 15%
- % inhibition eosinophils (mean ± s.e.m.) ([2]; dose 10 mg/kg): 27 ± 10%
- % inhibition total cells (mean ± s.e.m.) ([2]; dose 10 mg/kg): 19 ± 8%
- % inhibition eosinophils (mean ± s.e.m.) ([2]; dose 30 mg/kg): 55 ± 11%
- % inhibition total cells (mean ± s.e.m.) ([2]; dose 30 mg/kg): 44 ± 10%
- % inhibition of ear swelling (mean ± s.e.m.) ([3]; dose 3 mg/kg): 36 ± 19%
- % inhibition of ear swelling (mean ± s.e.m.) ([3]; dose 10 mg/kg): 54 ± 16%
- % inhibition of ear swelling (mean ± s.e.m.) ([3]; dose 30 mg/kg): 48 ± 11%

SMILES: O=C(O)COc1ccc(Cl)cc1C#Cc1ccc2c(c1)S(=O)(=O)c1ccccc1-2 [Example 154, {4-chloro-2-[(5,5-dioxidodibenzo[b,d]thien-3-yl)ethynyl]phenoxy}acetic acid]
- % inhibition of ear swelling (mean ± s.e.m.) ([3]; dose 3 mg/kg): 41 ± 9%
- % inhibition of ear swelling (mean ± s.e.m.) ([3]; dose 10 mg/kg): 49 ± 9%
- % inhibition of ear swelling (mean ± s.e.m.) ([3]; dose 30 mg/kg): 54 ± 17%

Source: US8273769B2, “Phenoxy acetic acid derivatives” (Merck Serono SA, priority 2009, dated 2012)
